Target: Brd4 (Homo sapiens, UniProt O60885)
Assay: Brd4 degradation by immunoblotting in PC-3 cells
Type: cell-based
Details: siRNA-VHL 50 nM 72 h, then 30 nM SHD913 for 4 h

siVHL: siRNA against VHL; sense sequence 5′- GGCUCAACUUCGACGGCGA −3′ (antisense UCGCCGUCGAAGUUGAGCC; chemistry not given here)
effect of siVHL pretreatment on SHD913-mediated Brd4 degradation: reversed SHD913-mediated Brd4 degradation

Reference: publication PMC11672125 (JACS Au, 2024)
